Reference: paper PMC6658998, “Pharmacological characterization of the seven human NOX isoforms and their inhibitors” (Redox Biology, 2019)
Values belong to the compound of their own block, whether it stands above or below them.

Columns and labels:
[1] = target: T1, human NOX4 (Homo sapiens, UniProt Q9NPH5); experiment: Amplex Red/HRP H2O2 detection in tetracycline-induced NOX4 HEK293 T-REx cells
T1 sequence (Q9NPH5 1-578): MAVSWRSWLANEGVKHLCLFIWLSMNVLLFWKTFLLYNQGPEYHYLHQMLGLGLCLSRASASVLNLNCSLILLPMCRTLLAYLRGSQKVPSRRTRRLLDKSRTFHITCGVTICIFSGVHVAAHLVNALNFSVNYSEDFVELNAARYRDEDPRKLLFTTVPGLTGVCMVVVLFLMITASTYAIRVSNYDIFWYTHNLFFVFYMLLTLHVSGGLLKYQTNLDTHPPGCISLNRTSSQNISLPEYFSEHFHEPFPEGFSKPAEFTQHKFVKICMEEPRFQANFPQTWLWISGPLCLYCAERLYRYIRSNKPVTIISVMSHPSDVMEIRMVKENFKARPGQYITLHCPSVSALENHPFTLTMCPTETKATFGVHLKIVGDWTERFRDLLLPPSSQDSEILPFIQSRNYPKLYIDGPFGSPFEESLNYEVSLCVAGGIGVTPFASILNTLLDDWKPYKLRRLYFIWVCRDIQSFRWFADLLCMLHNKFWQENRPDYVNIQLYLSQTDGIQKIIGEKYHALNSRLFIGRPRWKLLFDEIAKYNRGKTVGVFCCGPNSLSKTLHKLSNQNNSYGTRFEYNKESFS
T1 sequence (P13498 1-195 partner): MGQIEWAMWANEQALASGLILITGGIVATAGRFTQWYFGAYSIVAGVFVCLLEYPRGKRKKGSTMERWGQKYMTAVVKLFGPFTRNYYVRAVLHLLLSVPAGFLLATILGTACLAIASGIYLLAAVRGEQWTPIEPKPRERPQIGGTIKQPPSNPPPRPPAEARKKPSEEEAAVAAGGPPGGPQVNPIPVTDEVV

[2] = target: NOX4 (Homo sapiens, UniProt Q9NPH5); conditions: NOX4 T-rex cells, tetracycline 24 h, antimycin A 1 μM, compound 10 μM
[3] = target: T2, NOX2 (Homo sapiens, UniProt P04839); experiment: NOX2 activity in purified PLB-985 membranes (WST-1, CBA); type: biochemical
T2 sequence (P04839 2-570 limits assumed): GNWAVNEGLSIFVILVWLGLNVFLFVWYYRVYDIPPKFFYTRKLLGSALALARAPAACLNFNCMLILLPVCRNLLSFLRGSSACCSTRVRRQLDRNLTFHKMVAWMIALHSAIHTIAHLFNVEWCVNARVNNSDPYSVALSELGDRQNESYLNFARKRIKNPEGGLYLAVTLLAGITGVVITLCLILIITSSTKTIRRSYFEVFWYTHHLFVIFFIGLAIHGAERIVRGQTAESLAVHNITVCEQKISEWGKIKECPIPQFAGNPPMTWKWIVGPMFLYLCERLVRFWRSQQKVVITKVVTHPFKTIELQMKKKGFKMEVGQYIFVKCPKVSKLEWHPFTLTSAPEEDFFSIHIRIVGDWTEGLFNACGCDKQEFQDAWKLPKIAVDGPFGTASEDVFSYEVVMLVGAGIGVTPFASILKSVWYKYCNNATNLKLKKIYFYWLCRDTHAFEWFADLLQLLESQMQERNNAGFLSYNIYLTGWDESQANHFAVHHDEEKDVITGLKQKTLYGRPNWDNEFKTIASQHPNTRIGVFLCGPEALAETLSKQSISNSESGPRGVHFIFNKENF
Description: PLB-985 (40 dishes 150 cm^2) were grown in suspension and differentiated by addition of 1.25% DMSO for 72 h. HEK293 cells expressing NOX5 (40 dishes 150 cm^2) were amplified until confluence and detached using trypsin-EDTA for 5 min followed by addition of 2 vol of pre-warmed complete growth media to inactivate trypsin. Collected cells were centrifuged at 4000 ×g for 10 min. Cells were washed with PBS and centrifuged at 1500 ×g for 10 min. The supernatant was discarded and the pellet was placed at −80 °C for at least 30 min. […] Samples were sonicated two times for 25 s (level 7, Branson Sonifier 250). Cell debris were removed by centrifugation at 800 ×g for 10 min at 4 °C. […] Protein concentration was determined with Bradford reagent using BSA as a standard. […]
NOX2 containing membranes were used at 10 μg/mL of proteins in a reaction mixture containing 90 nM recombinant RacQ61L, 45 nM recombinant p67Np47 N chimeric protein (consisting of a fusion of the N-termini of human p67phox [residues 1–210] and p47phox [residues 1–286]), 90 μM SDS, 1 μM FAD-Na2 and 1 mM WST-1 or 800 μM CBA in PBS. The reaction mixture was dispensed in 96-well plates (transparent for WST-1 absorbance, black for CBA fluorescence) at 80 μL/well and the plate was incubated for 5 min at 37 °C. […]

[4] = system: all NOX isoforms; conditions: compound 10 μM, NOX1-5, DUOX1, DUOX2 cell lines
[5] = target: NOX2; parameters: method as in PMID 27273790; conditions: documented values, measured using Amplex Red/HRP assay; cited from earlier work
[6] = target: NOX4; parameters: method as in PMID 27273790; conditions: documented values, measured using Amplex Red/HRP assay; cited from earlier work
[7] = target: NOX5; parameters: method as in PMID 27273790; conditions: documented values, measured using Amplex Red/HRP assay; cited from earlier work
[8] = target: NOX1; parameters: method as in PMID 27273790; conditions: documented values, measured using Amplex Red/HRP assay; cited from earlier work

SMILES: COc1cc(C(C)=O)ccc1O [Apocynin, apocynin]
IC50 [1]: > 50 µM

SMILES: c1ccc2c(c1)[I+]c1ccccc1-2 [DPI, diphenylene iodonium chloride]
Inhibition of NOX4-dependent (non-mitochondrial) oxygen consumption [2]: inhibited
Inhibitory activity in NOX2 membrane assay ([3]; WST-1 / CBA, concentration not given): potently inhibited
Inhibition of NOX isoforms in cell lines [4]: inhibits all NOX isoforms

SMILES: O=c1c2ccccc2[se]n1-c1ccccc1 [Ebselen, ebselen]
Inhibition of NOX2-dependent signal in membranes ([3]; compound 50 μM): inhibited
IC50 [1]: 4.1 µM

The next lines start with results.

IC50 [1]: > 50 µM
SMILES: COc1cc(C(C)=O)cc(-c2cc(C(C)=O)cc(OC)c2O)c1O [Diapocynin, diapocynin]

IC50 [1]: 2.7 µM
SMILES: Cc1c2c(=O)n(-c3ccccc3Cl)[nH]c2cc(=O)n1Cc1ccccn1 [GKT136901]
Ki NOX2 [5]: micromolar range
Ki NOX4 [6]: nanomolar range
Ki NOX5 [7]: nanomolar range
Ki NOX1 [8]: nanomolar range
